The test system of experiment [1] is C57BL/6 mice on HFD with established metabolic disease. The experiment is described as follows: Treatment of established obesity-associated IR (switch to HFD 5-ASA after 8 weeks HFD). It is filed as in vivo. The following applies: 8 weeks HFD then 8 weeks HFD 5-ASA (1500 mg/kg/day) vs HFD only. The protocol:
Mice. Mice were fed either NCD (15 kcal % fat) or HFD (Research Diets, 60 kcal % fat, irradiated) starting at 6 weeks of age. All studies were performed under the approval of Animal User Protocols by the Animal Care Committee at the University Health Network. Mice were maintained in a pathogen-free, temperature-controlled environment on a 12-hour light and dark cycle. All mice used in comparative studies were male, age-matched, and litter mates where possible. […] We confirmed T cell-specific floxing of the PPARγ gene in Lck-Cre+ PPARγfl/fl mice by qPCR with a minimum of at least 90% reduction in PPARγ expression. […] We measured body weights, GTTs, ITTs, serum insulin, and fat cell diameter as previously described (Winer et al., 2009a). All GTTs were performed with a 1.5 g/kg glucose i.p. injection unless indicated otherwise.

For experiment [2], the system named is gut bacteria. The experiment is described as follows: Gut microbiome sequencing. Conditions: HFD 5-ASA-fed mice. The experiment is classed as in vivo. The method, then:
We amplified the V4 hypervariable region of the 16S rRNA gene using a universal forward sequencing primer and a uniquely barcoded reverse sequencing primer to allow for multiplexing (Caporaso et al., 2012). Primers contained an adapter sequence to bind the amplicons to the Illumina flow cell. PCR-based library construction was performed in triplicate 25 μl solutions containing 1×KAP[…] Robust HotStart ReadyMix, 600 nM each of primer, and 1 μl of DNA template. For every PCR reaction sterile dH2O was used as a negative control to ensure no contaminating DNA was present. PCR conditions were 95° C. for 3 min, followed by 18 cycles of 95° C. for 15 s, 58° C. for 15 s, 72° C. for 15 s and were completed at 72° C. for 5 min. All PCR reactions were run on a 1% agarose gel to visualize the amplification and approximate DNA quantity. Individual barcoded samples from the triplicates were pooled by approximately even concentrations to create the final library. The final library was purified using 0.8 volumes of Agencourt AMPure XP beads (Beckman Coulter, Indianapolis, Ind.) according to the manufacturer's protocol and quantified using the Qubit Fluorometer. The final library was prepared according to the MiSeq user guide, diluted to a concentration of 7 pM and combined with a 5% PhiX control. Sequencing was performed using the V2 (150 bp×2) chemistry and sequenced on the Illumina MiSeq (Illumina, San Diego, Calif.).

Experiment [3] has as its system small bowel T cells. The experiment is described as follows: In vitro IFNγ secretion, anti-CD3/CD28-activated small bowel T cells. The experiment is classed as cell-based. Conditions: T cells from HFD-fed WT mice, 72 hour; 5-ASA 0.1 mM; rosiglitazone 0.1, 1 and 10 μM. The protocol: To measure the effect of IFNγ on tight-junction gene expression, we treated MODE-K cells with recombinant mouse IFNγ (Biolegend). We purified bulk dendritic cells and T cells from murine small bowels and spleens using a negative selection DC or T cell isolation kit (Stem Cell Technologies). We plated T cells at 5×10^5 cells/well with plate-bound anti-CD3/CD28 (1 μg/ml, Biolegend). […] We collected supernatants for cytokine measurements after 72 hour incubation. […] After 24 hours, we washed the cells with PBS and co-cultured them (1×10^4 cells/well) with OVA323-339 peptide and OT-II splenic or small bowel T cells (5×10^4 cells/well) for 48 hours. Supernatants were collected at 48 hours for cytokine measurement. We measured serum cytokines by Luminex Multiplex cytokine assay (Millipore, run by the UHN Microarray Center), and quantified IL-10 and IFN-γ in supernatants of anti-CD3/CD28-stimulated splenocytes or bowel immune cells (Winer et al., 2009b) by ELISA (Biolegend).

Experiment [4] concerns HFD-fed C57BL/6 mice. Nature of the experiment: Food intake and metabolic cage studies, HFD or HFD 5-ASA. The experiment is classed as in vivo. Conditions: HFD vs HFD 5-ASA, 14 weeks. The protocol:
Mice. Mice were fed either NCD (15 kcal % fat) or HFD (Research Diets, 60 kcal % fat, irradiated) starting at 6 weeks of age. All studies were performed under the approval of Animal User Protocols by the Animal Care Committee at the University Health Network. Mice were maintained in a pathogen-free, temperature-controlled environment on a 12-hour light and dark cycle. All mice used in comparative studies were male, age-matched, and litter mates where possible. […] We confirmed T cell-specific floxing of the PPARγ gene in Lck-Cre+ PPARγfl/fl mice by qPCR with a minimum of at least 90% reduction in PPARγ expression. […] We placed mice in automated metabolic cages (Oxymax Systems, Columbus Instruments) for 48 hours with airflow held constant at 0.5 L/min. (Revelo et al., 2014). […] We measured metabolic activity using indirect calorimetry, recording maximal O2 consumption (VO2), CO2 production (VCO2), and heat production normalized to body weight. Respiratory exchange ratio (RER) was calculated as […]. The data shown are calculated for light and dark measurements as an average over 24 hours by combining light and dark measurements. Ambulatory activity was measured by the breaking of infrared laser beams in the XY plane.

For experiment [5], the system named is VAT T cells and M1 macrophages. Nature of the experiment: Flow cytometry of VAT immune cells, HFD or HFD 5-ASA. It is filed as in vivo, mice. The following applies: HFD vs HFD 5-ASA 1500 mg/kg/day, 16 weeks. The method, then:
We isolated VAT-associated immune cells as previously described (Winer et al., 2009a).
We stained single cell suspensions for 30 min on ice with commercial antibodies. Flow cytometry antibodies including CD45.2 (104), CD3 (145-2C11), CD4 (GK1.5), CD8 (53-6.7), CD25 (PC61), γδTcR (GL3), Foxp3 (150D), IL-17 (TC11-18H10.1), IFNγ XMG1.2), α4β7 (DATK32), CCR9 (CW-1.2), CD11b (M1/70), F4/80 (BM8), CD11c (N418), CD206 (C068C2), Gr-1 (RB6-8C5), IL-7Rα (A7R34), B220 (RA3-6B2), Thy1.2 (30-H12), NKp46 (29A1.4), and Sca-1 (D7) were purchased from Biolegend. Intracellular staining was performed using a Foxp3 staining buffer kit (eBioscience). We acquired data on a Fortessa flow cytometer (BD Biosciences) and analyzed it with FlowJo software (Tree Star). We gated ILCs as described (Kirchberger et al., 2013).

In the case of `Nc1ccc(O)c(C(=O)O)c1` [5-ASA, 5-aminosalicylic acid], in experiment [1], the body weight result is on record as “did not change”, the glucose tolerance result is given as “significant improvements” and the insulin tolerance result was “significant improvements”. For the same compound, in experiment [2], the Clostridiales entry is given as “increased”, the Firmicutes entry is on record as “increased”, the “abundance of Ruminococcaceae” value is reported as “increased” and the bacterial diversity result is “increased”. The IFNγ production entry in experiment [3] is reported as “significantly reduced”. Besides, in experiment [4], the carbon dioxide output entry is “no difference”, the food intake entry is “no difference” and the oxygen consumption result is “no difference”. Further, in experiment [5], the “Tregs in VAT” value is recorded as “increasing”, the “percentages of IFNγ-secreting CD8+ T cells in VAT” value is recorded as “reducing”, the “percentages of M1 inflammatory macrophages in VAT” value is given as “reducing” and the “percentages of Th1 cells in VAT” value is recorded as “reducing”.

The record behind these values is US20180193361A1, “GUT ANTI-INFLAMMATORY AGENTS FOR REGULATION OF HIGH BLOOD GLUCOSE LEVELS” (UNIVERSITY HEALTH NETWORK, priority 2015, published 2018).
